Source: patent US20040106545A1, “Compounds and methods for modulating cell adhesion” (priority 1996, published 2004)
Where two headings read alike, the source gives them in different places. Positions of bridges follow the written chain, without caps; N, C: chain ends. Residues, ends and D or L forms follow the SMILES beside them. *: point of attachment. Ms = CS(=O)(=O)*

How the values were obtained:
[1] = tested on: Madin Darby canine kidney (MDCK) cells; format: cell-based; conditions: 18 h
HMVEC = format: cell-based, human; conditions: 3 h
Procedure: (§1) N—Ac-CHAVC-NH2 (SEQ ID NO:10) and the control peptide N—Ac-CHGVC-NH2 (SEQ ID NO:11) were evaluated for possible cytotoxic effects on human microvascular endothelial (HMVEC; Clonetics), human umbilical vein endothelial (HUVEC; ATCC #CRL-1730), IAFp2 (human fibroblast cell line; Institute Armand-Frapier, Montreal, Quebec), WI-38 (human fibroblast cell line; ATCC #CCL-75), MDA-MB231 (human breast cancer cell line; ATCC #HTB-26), and PC-3 (human prostate cancer cell line; ATCC #CRL-1435) cells utilizing the MTT assay (Plumb et al., Cancer Res. 49:4435-4440, 1989). Neither of the peptides was cytotoxic at concentrations up to and including 100 μM. Similarly, neither of the peptides was capable of inhibiting the proliferation of the above cell lines at concentrations up to 100 μM, as judged by ^3H-thymidine incorporation assays.

HUVEC = format: cell-based, human; conditions: 3 h
Procedure: as §1

IAFp2 = format: cell-based, human; conditions: 3 h
Procedure: as §1

MDA-MB231 [2] = format: cell-based, human; conditions: 3 h
Procedure: as §1

PC-3 [3] = format: cell-based, human; conditions: 3 h
Procedure: as §1

WI-38 = format: cell-based, human; conditions: 3 h
Procedure: as §1

MDA-MB231 [4] = test: Cytotoxicity, MTT assay, MDA-MB231; format: cell-based, human
Procedure: as §1

PC-3 [5] = test: Cytotoxicity, MTT assay, PC-3; format: cell-based, human
Procedure: as §1

N-cadherin = molecular target: T1, N-cadherin (Gallus gallus, UniProt P10288); test: Neurite outgrowth inhibition, rat neurons (Example 21); format: cell-based; conditions: read-out: % Inhibition of neurite outgrowth; 250 μg/mL
T1 construct: expressed in transfected cells; host or cells: 3T3 fibroblasts (monolayer)
T1 sequence (P10288 165-912): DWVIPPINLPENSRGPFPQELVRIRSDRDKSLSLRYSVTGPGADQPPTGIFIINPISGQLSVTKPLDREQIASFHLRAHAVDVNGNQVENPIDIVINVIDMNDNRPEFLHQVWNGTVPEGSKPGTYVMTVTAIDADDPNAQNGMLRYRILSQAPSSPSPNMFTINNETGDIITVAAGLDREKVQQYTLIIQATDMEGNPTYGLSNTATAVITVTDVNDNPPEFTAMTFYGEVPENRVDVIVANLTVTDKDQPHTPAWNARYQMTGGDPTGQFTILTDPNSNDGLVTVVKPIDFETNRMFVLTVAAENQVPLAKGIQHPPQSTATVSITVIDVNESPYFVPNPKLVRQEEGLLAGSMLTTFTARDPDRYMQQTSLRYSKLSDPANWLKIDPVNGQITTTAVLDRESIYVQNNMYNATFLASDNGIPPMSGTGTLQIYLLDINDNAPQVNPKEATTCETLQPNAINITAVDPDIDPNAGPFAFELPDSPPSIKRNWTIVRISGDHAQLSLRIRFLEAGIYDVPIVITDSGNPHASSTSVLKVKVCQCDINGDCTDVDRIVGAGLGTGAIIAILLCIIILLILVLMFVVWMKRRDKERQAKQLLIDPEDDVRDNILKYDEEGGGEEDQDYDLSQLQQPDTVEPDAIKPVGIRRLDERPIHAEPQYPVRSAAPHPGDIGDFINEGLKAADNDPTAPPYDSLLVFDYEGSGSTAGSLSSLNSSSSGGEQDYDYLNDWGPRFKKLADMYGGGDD

[6] = tested on: chick embryonic chorioallantoic membranes; test: Chick chorioallantoic membrane angiogenesis assay; format: in vivo; conditions: for Percent Inhibition of Angiogenesis: 24 hours
Procedure: Another cell adhesion assay evaluates the ability of a modulating agent to block angiogenesis (the growth of blood vessels from pre-existing blood vessels). This ability may be assayed using the chick chorioallantoic membrane assay described by Iruela-Arispe et al., Molecular Biology of the Cell 6:327-343, 1995. Briefly, a modulating agent may be embedded in a mesh composed of vitrogen at one or more concentrations (e.g., ranging from about 1 to 100 μg/mesh). The mesh(es) may then be applied to chick chorioallantoic membranes. After 24 hours, the effect of the peptide may be determined using computer assisted morphometric analysis. A modulating agent should inhibit angiogenesis by at least 25% at a concentration of 33 μg/mesh.
The chick chorioallantoic membrane assay was used to assess the effects of cyclic peptides on angiogenesis (Iruela-Arispe et al., Molecular Biology of the Cell 6:327-343, 1995). Cyclic peptides were embedded in a mesh composed of vitrogen at concentrations of 3, 17, and 33 μg/mesh. The meshes were then applied to 12-day-old chick embryonic chorioallantoic membranes. After 24 hours, the effects of the peptides on angiogenesis were assessed by computer assisted morphometric analysis.

CC(=O)N[C@@H](CO)C(=O)N[C@H]1CSSC[C@@H](C(N)=O)NC(=O)[C@H](C(C)C)NC(=O)[C@H](C)NC(=O)[C@H](Cc2c[nH]cn2)NC1=O [N—Ac—S—CHAVC—NH2] (Ac-SCHAVC-NH2; disulfide 2-6)
EC50 [1]: 490 µM

CC(=O)N[C@H]1CSSC[C@@H](C(N)=O)NC(=O)[C@H](C(C)C)NC(=O)CNC(=O)[C@H](Cc2c[nH]cn2)NC(=O)[C@H](CO)NC1=O [N—Ac—CSHGVC—NH2] (Ac-CSHGVC-NH2; disulfide 1-6)
IC50 (HMVEC): > 100 µM
IC50 (HUVEC): > 100 µM
IC50 (IAFp2): > 100 µM
IC50 (MDA-MB231 [2]): > 100 µM
IC50 (PC-3 [3]): > 100 µM
IC50 (WI-38): > 100 µM
IC50 (MDA-MB231 [4]): > 100 µM
IC50 (PC-3 [5]): > 100 µM
inhibition at 250 µg/mL (N-cadherin): 0%

CC(=O)N[C@H]1CSSC[C@@H](C(N)=O)NC(=O)[C@H](CO)NC(=O)[C@H](CO)NC(=O)[C@H](C(C)C)NC(=O)CNC(=O)[C@H](Cc2c[nH]cn2)NC(=O)[C@H](CO)NC1=O (Ac-CSHGVSSC-NH2; disulfide 1-8)
IC50 (HMVEC): > 100 µM
IC50 (HUVEC): > 100 µM
IC50 (IAFp2): > 100 µM
IC50 (MDA-MB231 [2]): > 100 µM
IC50 (PC-3 [3]): > 100 µM
IC50 (WI-38): > 100 µM
IC50 (MDA-MB231 [4]): > 100 µM
IC50 (PC-3 [5]): > 100 µM
inhibition at 250 µg/mL (N-cadherin): 0%

CC(=O)N[C@H]1CSSC[C@@H](C(N)=O)NC(=O)[C@H](Cc2c[nH]cn2)NC(=O)[C@H](C)NC(=O)[C@H](C(C)C)NC1=O [N—Ac—CVAHC—NH2] (Ac-CVAHC-NH2; disulfide 1-5)
Percent Inhibition of Angiogenesis ([6]; 3 μg/mesh, absence (−) of 0.01 mM VEGF): −1%^
Percent Inhibition of Angiogenesis ([6]; 3 μg/mesh, presence (+) of 0.01 mM VEGF): 7%
Percent Inhibition of Angiogenesis ([6]; 17 μg/mesh, absence (−) of 0.01 mM VEGF): 13%
Percent Inhibition of Angiogenesis ([6]; 17 μg/mesh, presence (+) of 0.01 mM VEGF): 24%
Percent Inhibition of Angiogenesis ([6]; 33 μg/mesh, absence (−) of 0.01 mM VEGF): 12%
Percent Inhibition of Angiogenesis ([6]; 33 μg/mesh, presence (+) of 0.01 mM VEGF): 25%
inhibition of angiogenesis (in words) ([6]; 3, 17 and 33 μg/mesh): relatively inactive
IC50 (HMVEC): > 100 µM
IC50 (HUVEC): 8 µM
IC50 (IAFp2): > 100 µM
IC50 (MDA-MB231 [2]): > 100 µM
IC50 (PC-3 [3]): > 100 µM
IC50 (WI-38): > 100 µM
IC50 (MDA-MB231 [4]): > 100 µM
IC50 (PC-3 [5]): > 100 µM

CC[C@H](C)[C@@H]1NC(=O)[C@H](CC(=O)O)NC(=O)[C@H](C(C)C)NC(=O)CNC(=O)[C@H](Cc2c[nH]cn2)NC(=O)[C@H](C)NC(=O)[C@@H](N)CSSC[C@@H](C(N)=O)NC1=O (H-CAHGVDIC-NH2; disulfide 1-8)
IC50 (HMVEC): > 100 µM
IC50 (HUVEC): > 100 µM
IC50 (IAFp2): > 100 µM
IC50 (MDA-MB231 [2]): > 100 µM
IC50 (PC-3 [3]): > 100 µM
IC50 (WI-38): > 100 µM
IC50 (MDA-MB231 [4]): > 100 µM
IC50 (PC-3 [5]): > 100 µM
inhibition at 250 µg/mL (N-cadherin): 0%

CC(C)[C@@H]1NC(=O)[C@H](C)NC(=O)[C@H](Cc2c[nH]cn2)NC(=O)[C@@H](NS(C)(=O)=O)CSSC[C@@H](C(=O)N[C@@H](Cc2ccc(O)cc2)C(N)=O)NC1=O [CH3—SO2—NH—CHAVCY—NH2] (Ms-CHAVCY-NH2; disulfide 1-5)
EC50 [1]: 140 µM
